According to patent publication US12606561B2, “Substituted pyrazolo[1,5-a][1,3,5]triazines as CDK inhibitors” (QURIENT CO., LTD., priority 2018, dated 2026):
Like-named read-outs stand apart in the source and are kept apart here.

Tests used:
[1] = target: T1, CDK1/Cyclin B (Homo sapiens, UniProt P06493); test: Enzymatic assay for CDK1 (LANCE Ultra kinase assay, FRET based); format: biochemical; settings: ATP at Km; read-out: CDK1 enzymatic activity IC50
T1 construct: purchased Invitrogen PR4768C
How it was run: (§1)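 Purified CDK–cyclin enzyme, ATP at Km; ULight peptide substrate; TR-FRET via Eu anti-phospho-Ab; inhibition scored.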

[2] = target: T2, CDK7/Cyclin H/MNAT1 (Homo sapiens, UniProt P50613); test: Enzymatic assay for CDK7 (LANCE Ultra kinase assay, FRET based); format: biochemical
T2 construct: purchased Invitrogen PR6749B
How it was run: as §1

[3] = system: H460; test: Cellular H460 viability assay (CellTiter-Glo, 72 hours); format: cell-based; settings: Homo sapiens, NCI-H460; H460 cells
Protocol: All cell lines were routinely tested for mycoplasma.
To effect of the CDK7 inhibitor to inhibit the growth of target cancer cells, viability assay were conducted a 72 hour time period. Briefly, the candidate cell line was plated in 96 well plate at the following density of cells respectively. 1×10^4 cells/well for MV4-11, 5×10^3 for H460 and OVCAR-3, and 1×10^3 for A2780. […] DMSO solvent without compound served as a control and final DMSO concentration lest than 0.1%. After 72 hours of incubation at 37° C., 5% CO2 incubator, cells were analyzed for the viability using the CellTiter-Glo Luminescent Cell Viability Assay (Promega, Cat #G7570). All viability assays were performed in duplicate and Luminescence was read using an Envision (Perkin Elmer, USA). Data was analyzed using XLfit software.

[4] = system: A2780; test: A2780 viability assay (CellTiter-Glo, 72 hours); format: cell-based; settings: Homo sapiens; A2780 cells
How it was run: (§2)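 RPMI-1640/10% FBS; plate cells (MV4-11 1×10^4, OVCAR-3 5×10^3, A2780 1×10^3 per well); 24 h later add compound 0.0015–10 uM; 72 h, 37° C; CellTiter-Glo luminescence, duplicate wells.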

[5] = system: OVCAR-3; test: OVCAR-3 viability assay (CellTiter-Glo, 72 hours); format: cell-based; settings: Homo sapiens; OVCAR-3 cells
How it was run: as §2

[6] = target: T3, 28 CDKs family protein kinases (Homo sapiens, UniProt Q07002); test: In vitro IC50 profile for CDKs family kinase (33PanQinase Activity Assay, ProQinase); format: biochemical; settings: CDK18/CycY; read-out: CDK7 selectivity profile in CDKs family, IC50
T3 construct: purchased ProQinase GmbH; host or cells: Sf9 insect cells or E. coli
Protocol: (§3) The IC50 profile of compound 11 was determined using 28 CDKs family protein kinases through ProQinase GmbH (Freiburg, Germany). All the protocol and materials had been provided by ProQinase GmbH. Briefly, in the process, 90 μl H2O were added to each well of a compound dilution plate. To minimize potential precipitation, the H2O was added to the plate only a few minutes before the transfer of the compound solutions into the assay plates. The plate was shaken thoroughly, resulting in a “compound dilution plate/10% DMSO”. The compound dilution plate(s) were discarded at the end of the working day. For the assays (see below), 5 μl solution from each well of the compound dilution plate were transferred into the assay plates. The final volume of the assay was 50 μl. All compounds were tested at 10 final assay concentrations in the range from 1×10^−05 M to 3×10^−10 M. The final DMSO concentration in the reaction cocktails was 1% in all cases. All protein kinases provided by ProQinase were expressed in Sf9 insect cells or in E. coli as recombinant GST-fusion proteins or His-tagged proteins, either as full-length or enzymatically active fragments. All kinases were produced from human cDNAs and purified by either GSH affinity chromatography or immobilized metal affinity chromatography. The purity of the protein kinases was examined by SDS-PAGE/Coomassie staining, the identity was checked by mass spectroscopy. Kinases from external vendors, Carna Biosciences Inc.; Invitrogen Corp.; and Millipore Corp., were expressed, purified and quality-controlled by virtue of the vendors readings. A radiometric protein kinase assay (33PanQinase® Activity Assay) was used for measuring the kinase activity of the 28 protein kinases. All kinase assays were performed in 96-well FlashPlates™ from PerkinElmer (Boston, MA, USA) in a 50 μl reaction volume. The reaction cocktails were incubated at 30° C. for 60 minutes. The reaction was stopped with 50 μl of 2% (v/v) H3PO4, plates were aspirated and washed two times with 200 μl 0.9% (w/v) NaCl. Incorporation of ^33Pi was determined with a microplate scintillation counter (Microbeta, Wallac). All assays were performed with a BeckmanCoulter/SAGIAN™ Core System. As part of the data evaluation the low control value from a particular plate was subtracted from the high control value as well as from all 80 “compound values” of the corresponding plate. The residual activity (in %) for each well of a particular plate was calculated by using the following formula: Res. Activity (%)=100×[(cpm of compound−low control)/(high control−low control)].

[7] = target: T4, 28 CDKs family protein kinases (Homo sapiens, UniProt Q8IZL9); test: as above; format: biochemical; settings: read-out: CDK7 selectivity profile in CDKs family, IC50
T4 construct: purchased ProQinase GmbH; host or cells: Sf9 insect cells or E. coli
Protocol: as §3

[8] = target: 28 CDKs family protein kinases (Homo sapiens, UniProt Q00535); test: as above; format: biochemical; parameters: fused on or other part: GST or His tag; settings: CDK5/p25NCK; read-out: CDK7 selectivity profile in CDKs family, IC50
Protocol: The IC50 profile of compound 11 was determined using 28 CDKs family protein kinases through ProQinase GmbH (Freiburg, Germany). All the protocol and materials had been provided by ProQinase GmbH. Briefly, in the process, 90 μl H2O were added to each well of a compound dilution plate. To minimize potential precipitation, the H2O was added to the plate only a few minutes before the transfer of the compound solutions into the assay plates. The plate was shaken thoroughly, resulting in a “compound dilution plate/10% DMSO”. The compound dilution plate(s) were discarded at the end of the working day. For the assays (see below), 5 μl solution from each well of the compound dilution plate were transferred into the assay plates. The final volume of the assay was 50 μl. […] Kinases from external vendors, Carna Biosciences Inc.; Invitrogen Corp.; and Millipore Corp., were expressed, purified and quality-controlled by virtue of the vendors readings. […] Incorporation of ^33Pi was determined with a microplate scintillation counter (Microbeta, Wallac). […] The residual activity (in %) for each well of a particular plate was calculated by using the following formula: Res. Activity (%)=100×[(cpm of compound−low control)/(high control−low control)].

T2 sequence (P50613 whole entry): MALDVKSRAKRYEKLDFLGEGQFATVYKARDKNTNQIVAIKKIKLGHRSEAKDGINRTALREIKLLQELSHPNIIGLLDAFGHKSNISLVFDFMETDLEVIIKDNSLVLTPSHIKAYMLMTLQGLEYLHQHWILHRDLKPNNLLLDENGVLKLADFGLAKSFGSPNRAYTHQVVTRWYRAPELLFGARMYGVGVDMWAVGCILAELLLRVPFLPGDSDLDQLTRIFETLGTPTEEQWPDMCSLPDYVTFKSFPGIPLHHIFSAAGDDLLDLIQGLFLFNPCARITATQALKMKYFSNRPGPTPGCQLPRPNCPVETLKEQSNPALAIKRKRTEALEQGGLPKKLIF
T2 sequence (P51946 whole entry partner): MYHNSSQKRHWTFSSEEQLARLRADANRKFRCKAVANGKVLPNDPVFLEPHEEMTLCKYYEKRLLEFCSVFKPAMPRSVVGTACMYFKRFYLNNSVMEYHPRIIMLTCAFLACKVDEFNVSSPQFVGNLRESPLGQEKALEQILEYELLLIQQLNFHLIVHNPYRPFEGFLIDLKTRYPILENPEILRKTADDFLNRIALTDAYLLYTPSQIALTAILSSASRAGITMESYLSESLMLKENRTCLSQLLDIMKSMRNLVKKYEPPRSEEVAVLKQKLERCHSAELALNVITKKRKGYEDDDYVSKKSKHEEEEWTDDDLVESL
T2 sequence (P51948 whole entry partner): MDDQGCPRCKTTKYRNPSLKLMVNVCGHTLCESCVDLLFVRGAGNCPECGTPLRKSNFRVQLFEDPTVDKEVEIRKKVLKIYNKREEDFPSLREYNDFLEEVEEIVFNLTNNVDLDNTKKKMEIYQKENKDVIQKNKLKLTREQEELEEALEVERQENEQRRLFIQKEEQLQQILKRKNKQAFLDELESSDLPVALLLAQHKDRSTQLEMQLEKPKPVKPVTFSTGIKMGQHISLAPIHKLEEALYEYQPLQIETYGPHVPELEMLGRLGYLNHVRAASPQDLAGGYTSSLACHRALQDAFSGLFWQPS
28 CDKs family protein kinases (Homo sapiens, UniProt Q00535), sequence (Q00535 whole entry, the tested form may be a part): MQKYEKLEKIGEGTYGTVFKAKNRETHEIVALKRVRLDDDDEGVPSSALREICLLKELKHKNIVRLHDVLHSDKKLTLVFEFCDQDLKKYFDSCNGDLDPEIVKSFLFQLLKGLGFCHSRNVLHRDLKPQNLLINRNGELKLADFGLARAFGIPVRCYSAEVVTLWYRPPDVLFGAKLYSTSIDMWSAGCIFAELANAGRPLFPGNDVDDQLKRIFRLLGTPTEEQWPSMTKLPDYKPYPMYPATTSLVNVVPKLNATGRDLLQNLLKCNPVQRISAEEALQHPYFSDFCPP
T1 sequence (P06493 whole entry): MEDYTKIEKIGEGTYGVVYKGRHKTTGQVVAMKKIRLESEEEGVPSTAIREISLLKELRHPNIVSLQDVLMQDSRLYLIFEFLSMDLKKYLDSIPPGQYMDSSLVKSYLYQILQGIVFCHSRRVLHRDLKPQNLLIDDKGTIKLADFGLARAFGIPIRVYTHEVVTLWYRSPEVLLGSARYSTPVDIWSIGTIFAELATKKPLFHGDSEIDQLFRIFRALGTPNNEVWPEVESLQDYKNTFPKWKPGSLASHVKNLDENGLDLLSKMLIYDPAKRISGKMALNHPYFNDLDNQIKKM
T1 sequence (P14635 whole entry partner): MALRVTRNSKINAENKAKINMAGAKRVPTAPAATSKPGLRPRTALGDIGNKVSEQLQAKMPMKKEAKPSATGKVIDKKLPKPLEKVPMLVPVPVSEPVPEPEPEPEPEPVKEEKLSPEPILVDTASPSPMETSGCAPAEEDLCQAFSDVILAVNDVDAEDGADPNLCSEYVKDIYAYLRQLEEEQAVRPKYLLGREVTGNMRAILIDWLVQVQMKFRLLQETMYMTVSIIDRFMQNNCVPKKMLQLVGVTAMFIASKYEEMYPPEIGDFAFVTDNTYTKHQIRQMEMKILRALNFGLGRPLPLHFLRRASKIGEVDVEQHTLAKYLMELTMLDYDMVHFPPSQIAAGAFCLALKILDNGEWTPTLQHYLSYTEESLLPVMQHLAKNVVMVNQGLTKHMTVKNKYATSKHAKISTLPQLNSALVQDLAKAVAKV
T3 sequence (Q07002 whole entry): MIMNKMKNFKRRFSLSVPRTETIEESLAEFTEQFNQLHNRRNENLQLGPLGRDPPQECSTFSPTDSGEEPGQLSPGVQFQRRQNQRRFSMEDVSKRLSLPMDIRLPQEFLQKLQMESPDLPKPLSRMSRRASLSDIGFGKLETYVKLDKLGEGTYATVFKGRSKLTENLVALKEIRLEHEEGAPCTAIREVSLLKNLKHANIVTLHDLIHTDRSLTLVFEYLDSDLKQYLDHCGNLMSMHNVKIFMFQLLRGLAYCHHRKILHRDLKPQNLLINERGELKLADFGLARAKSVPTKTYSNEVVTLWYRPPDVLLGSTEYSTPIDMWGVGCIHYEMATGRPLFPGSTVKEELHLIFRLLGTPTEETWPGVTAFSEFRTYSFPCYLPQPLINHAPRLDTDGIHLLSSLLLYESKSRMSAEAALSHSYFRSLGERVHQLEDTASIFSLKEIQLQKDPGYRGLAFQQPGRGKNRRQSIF
T3 sequence (Q8ND76 whole entry partner): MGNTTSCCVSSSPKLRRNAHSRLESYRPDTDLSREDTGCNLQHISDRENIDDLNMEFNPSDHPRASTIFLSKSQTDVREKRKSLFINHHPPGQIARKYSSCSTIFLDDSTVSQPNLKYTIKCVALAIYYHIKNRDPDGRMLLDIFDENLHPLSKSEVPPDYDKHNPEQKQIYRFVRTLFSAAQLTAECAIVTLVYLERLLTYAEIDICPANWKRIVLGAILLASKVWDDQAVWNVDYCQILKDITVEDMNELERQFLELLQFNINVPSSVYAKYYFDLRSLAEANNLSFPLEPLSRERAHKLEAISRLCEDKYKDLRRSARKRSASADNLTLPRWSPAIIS

CC(C)c1cnn2c(NCc3ccccc3-c3nccc4cc(NC(=O)/C=C/CN(C)C)ccc34)nc(N3CCC(N)CC3)nc12 [Compound 11]
IC50 [1]: > 1000 nM | IC50 ([2]; ATP at Km): < 100 nM | CDK1/CDK7: Selectivity of CDK7 inhibition over CDK1 inhibition ([2]; CDK7 over CDK1): A (A indicates [fold] > 500) | CDK2/CDK7: Selectivity of CDK7 inhibition over CDK2 inhibition ([2]; CDK7 over CDK2): A (A indicates [fold] > 500) | CDK5/CDK7: Selectivity of CDK7 inhibition over CDK5 inhibition ([2]; CDK7 over CDK5): A (A indicates [fold] > 500) | IC50 [3]: < 1000 nM | IC50 [4]: < 1000 nM | IC50 [5]: < 1000 nM | IC50 [6]: > 10000 nM | IC50 ([7]; CDK20/CycH): > 10000 nM | IC50 ([7]; CDK20/CycT1): > 10000 nM | IC50 [8]: > 10000 nM
